From patent US20070014739A1, “Compositions and methods for controlling biofilms and bacterial infections” (priority 2005, published 2007)
Several values for one entry are separate records, joined by “and”; a condition that tells them apart may be missing. Identical values can stand only once.

Key:
[1] = tested on: Pseudomonas aeruginosa PA01; assay: Inhibition of biofilm formation and growth, 96-well plates, crystal violet; type: cell-based; details: for inhibited biofilm formation of P. aeruginosa PAO1: approximately 10 ug/ml, compared to the controls; for inhibitory effect on the growth of P. aeruginosa PA01: compared to controls
Experimental: An overnight culture of P. aeruginosa PA01 in LB+1% citrate was prepared. It was incubated at 37° C. shaker for 24 hours. A 1:20 dilution of the overnight culture was prepared. Test compounds are diluted appropriately with a volume of ethanol followed by shaking for approximately 5 minutes and then diluted with an appropriate volume of water.
Replicate 96-well plates are prepared, preferably two to four replicates, with appropriately diluted overnight culture and test compound in each well. Preferably, test compounds are prepared at 10 to 30 micrograms per milliliter. On each 96-well plate controls are appropriately prepared with at least one set of controls consisting of overnight culture and ethanol/water diluent and another set of controls consisting of growth media and ethanol/water diluent. Plates are covered with foil at room temperature and shaken for approximately 24 hours.
After shaking absorbance of the wells of the plates are determined, preferably at 630 nanometers. Liquid is than aspirated out of the wells and each well is filled with diluted crystal violet, preferably approximately 250 microliters of a 1:4 dilution, and allowed to stand for approximately 10 minutes. Each well of the plate is washed, preferably four times, with PBS with approximately one minute between each wash. After the final wash is aspirated out, the plate may be turned over onto paper towels to dump out excess PBS. 95% ethanol is added to each well, preferably 250 microliters. Absorbance of each well of a plate is determined, preferably at 540 nm. Preferably slight shaking is performed during the absorbance reading for approximately 5 minutes. Each well of the plate is than diluted […] with ethanol in a separate plate, preferably 145 ul of 95% ethanol and 5 uL from the original plate, and absorbance is determined. Preferably, slight shaking for approximately 3 minutes is performed.
Biofilm inhibition in each well is determined by subtracting the absorbance of the wells with test compounds from wells with controls containing overnight culture subtracting out controls with only media. A typical positive result of biofilm inhibition confirmed with replicates would be 30 percent to 80 percent less biofilm in the wells with test compound compared to the wells with controls of overnight culture.

[2] = tested on: P. aeruginosa strain PAO1; assay: Rotating disk reactor (RDR) biofilm test with and without tobramycin, culturable bacteria; type: cell-based, Pseudomonas aeruginosa
Experimental: Biofilm formation of P. aeruginosa was evaluated using a standardized biofilm method with a rotating disk reactor (RDR). This method provides a model resembling the formation of biofilms in cystic fibrosis patients. The rotating disk reactor consists of a one-liter glass beaker fitted with a drain spout. The bottom of the vessel contains a magnetically driven rotor with six 1.27 cm diameter coupons constructed from polystyrene. The rotor consists of a star-head magnetic stir bar upon which a disk was affixed to hold the coupons. The vessel with the stir bar was placed on a stir plate and rotated to provide fluid shear. A nutrient solution (AB Trace Medium with 0.3 mM glucose, see Table 3 below for composition) was added through a stopper in the top of the reactor at a flow rate of 5 ml/min. The reactor volume was approximately 180 ml and varied slightly between reactors depending on the placement of the drain spout and the rotational speed of the rotor. At a volume of 180 ml, the residence time of the reactors was 36 minutes. The reactors were operated at room temperature (c.a. 26° C.).
For each test, two RDRs were operated in parallel with one receiving test compound and the other serving as an untreated control. The RDRs were sterilized by autoclave, then filled with sterile medium and inoculated with P. aeruginosa strain PAO1. The reactors were then incubated at room temperature in batch mode (no medium flow) for a period of 24 hours, after which the flow was initiated for a further 24 hour incubation. Test compounds were dissolved in 10 ml ethanol to achieve a concentration of 1.8 mg/ml. After the 48 hours of biofilm development described above, the 10 ml of ethanol containing the test compounds were added to the reactor to achieve a final concentration of approximately 50, 100, or 200 μg/ml. Control reactors received 10 ml of ethanol. The reactors were then incubated for an additional 24 hours in batch (no flow) mode. After this incubation period, the six coupons were removed from each reactor and placed in 12-well polystyrene tissue culture plates with wells containing either 2 ml of a 100 μg/ml tobramycin solution or 2 ml of phosphate-buffered saline (PBS). These plates were incubated at room temperature for two hours. The coupons were then rinsed by three transfers to plates containing 2 ml of fresh PBS. For each two RDR reactors run in parallel, four sets of three coupons were obtained: one set with no test compound treatment and no tobramycin treatment, one set with no test compound treatment and tobramycin treatment, one set treated with a test compound treatment and no tobramycin treatment, and one set treated with a test compound treatment and tobramycin. After rinsing, one coupon of each set of three was stained with a LIVE/DEAD® BacLight™ Bacterial Viability Kit (Molecular Probes, Eugene Oreg.) and imaged using epifluorescent microscopy. The remaining two coupons were placed in 10 ml of PBS and sonicated for five minutes to remove and disperse biofilm cells. The resulting bacterial suspensions were then serially diluted in PBS and plated on tryptic soy agar plates for enumeration of culturable bacteria. The plates were incubated for 24 hours at 37° C. before colony forming units (CFU) were determined.
The results are averages from experiments performed on three separate days for each test compound. The values reported are as loglo CFU.

[3] = tested on: E. coli clinical strain UT189; assay: Inhibition of biofilm formation, crystal violet, 96 well plates; type: cell-based; details: Escherichia coli; 20 ug/ml; read-out: inhibited biofilm formation of the UT189 strain
Experimental: Biofilm inhibition experiments were conducted using an assay adapted from the reported protocol described in Pratt and Kolter, 1998, Molecular Microbiology, 30: 285-293; Li et al., 2001, J. Bacteriol., 183: 897-908. E. coli clinical strain UT189 was grown in LB in 96 well plates at room temperature for one or two days without shaking. E. coli laboratory strain JM109 was grown in LB plus 0.2% glucose in 96 well plates at room temperature for one day without shaking. To quantify the biofilm mass, the suspension culture was poured out and the biofilm was washed three times with water. The biofilm was stained with 0.1% crystal violet for 20 minutes. The plates were then washed three times with water. OD reading at 540 nm was measured to quantify the biofilm mass at the bottom of the wells. Then 95% ethanol was added to dissolve the dye at the bottom and on the wall and the OD reading at 540 nm was measured to quantify the total biofilm mass. To study the overall effect of the compounds (3.6 mg/mL in 100% ethanol as stock solution), it was added with the inoculation and a time course of biofilm mass was measured. Appropriate amounts of 100% ethanol were added to each sample to eliminate the effect of solvent. Each condition had 3-4 replicates on each plate and was performed over multiple days.

E. coli UT189[pCOMGFP] = assay: Biofilm pods (IBCs) in bladders of infected mice, intravesical compound, confocal microscopy; type: in vivo, Escherichia coli; details: vs controls
Experimental: The procedures in this example has been previously reported by Justice, S. et al. Differentiation and development pathways of uropathogenic Escherichia coli in urinary tract pathogenesis. PNAS, 2004, 101(5), p. 1333-1338. Briefly, E. coli UT189[pCOMGFP] was prepared after retrieval from frozen stocks by inoculating appropriately in LB medium statically for approximately 20 hours. Cells were harvested and suspended in 1 ml of PBS. Cells were diluted appropriately to achieve approximately a 10^8 CFU or 10^7 CFU input into C3H/HeN mice (2 mice per group).
Mice were deprived of water for approximately two hours. In experiment 1, all mice were anesthetized with 0.15 cc ketamine cocktail. In experiment 2, all mice were anesthetized with isofluorane. In experiment 1, urine was dispelled from the bladders and approximately 40 μg/ml of test compound or an appropriate amount of ethanol as control was introduced into the bladders via catheterization of the urethra using a tubing coated tuberculin syringe. 30 minutes was allowed to elapse. In experiment 2, bladders were not pre-incubated with test compounds. Bladders were then expelled and an inoculum of 10^8 CFU (Experiment 1) or 10^7 CFU (Experiment 2) of E. coli containing 40 μg/ml of test compound or equivalent amount of ethanol as controls were introduced into the bladders as indicated above.
In experiment 1 five hours elapsed and in experiment 2 six hours elapsed, and then mice were anesthetized and sacrificed appropriately. The bladders were removed, bisected, stretched, and fixed in 3% paraformaldehyde for 1 hour at room temperature. Bladders were then permeabilized in 0.01% Triton/PBS for 10 minutes and counter stained with TOPRO3 (Molecular Probes) for 10 minutes for visualization by confocal microscopy. Bladders were mounted on Prolong antifade (Molecular Probes).

[4] = tested on: E. coli clinical strain UT189 against bladder epithelial cells; assay: Binding to and invasion of bladder epithelial cells by E. coli; type: cell-based
Experimental: The effect of test compounds on bacterial invasion of E. coli clinical strain UT189 was studied as described in Elsinghorst, et al. 1994, Methods Enzymol, 236:405-420; and Martinez et al., 2000, EMBO J., 19:2803-2812. Epithelial bladder cells were grown in plates. Asiatic acid, corosolic acid, or ursolic acid were added at concentrations of 10 μg/ml, 20 μg/ml, or 40 μg/ml to bacteria and epithelial cells for approximately 5, 15, 30, or 60 minutes with approximately 10^7 CFU of E. coli. Binding was assessed at time zero and invasion was assessed at approximately 5, 15, 30, or 60 minutes from completing the mixture of compound, bacteria, and epithelial cells. As a control ethanol was added to cells to a final concentration of 0.1%. The effect of bacterial viability and bacterial adherence during the infection period was evaluated according to the methods described in Martinez et al., 2000, EMBO J., 19:2803-2812.

[5] = tested on: methicillin-resistant Staphylococcus aureus; details: cited from earlier work

In the case of “3-hydroxy-12,20(30) ursadienoic acid [3-hydroxy-12, 20(30) ursadienoic acid]”, the “inhibited biofilm formation of P. aeruginosa PAO1” value [1] is reported as “about 40%” and the “inhibitory effect on the growth of P. aeruginosa PA01” value [1] is reported as “no inhibitory effect”.
With `CC(=O)OC1CCC2(C)C(CCC3(C)C2CC=C2[C@@H]4CC(C)(C)CCC4(C(=O)O)CCC23C)C1(C)C` (some centres unmarked) [3-acetyl oleanolic acid] the “inhibited biofilm formation of P. aeruginosa PAO1” value [1] was about 50% and the “inhibitory effect on the growth of P. aeruginosa PA01” value [1] was “no inhibitory effect”.
In the case of `C[C@@H]1CC[C@]2(C(=O)O)CCC3(C)C(=CCC4C5(C)C[C@@H](O)[C@H](O)C(C)(C)C5CCC43C)C2[C@H]1C` (some centres unmarked) [Corosolic acid], the “CFU, Test Compound” value ([2]; test compound 100 μg/ml 24 h, no tobramycin, average of three days) is reported as 7.8 loglo CFU, the “CFU, Tobramycin and Test Compound” value ([2]; test compound 100 μg/ml 24 h, then tobramycin 100 μg/ml 2 h, average of three days) is reported as 5.3 loglo CFU and the inhibition at 20 µg/mL [3] is reported as about 85%. For the same compound, the “reduction in biofilm pods or IBCs in the bladders of mice” value (E. coli UT189[pCOMGFP]; experiment 1: C3H/HeN mice, 40 μg/ml intravesical with 30 min pre-incubation, 10^8 CFU, five hours) was 94%, the “reduction in large biofilm pods or large IBCs in the bladders of mice” value (E. coli UT189[pCOMGFP]; experiment 2: C3H/HeN mice, 40 μg/ml in inoculum, no pre-incubation, 10^7 CFU, six hours) was about 60% and the “reduced invasion of E. coli into bladder epithelial cells” value (from here on “reduced invasion”) ([4]; 20 μg/ml, 60 minutes, n=4) was 65%. The “reduced invasion” value ([4]; 40 µg/ml, 5 minutes, triplicate, compared to the controls) was 10%, the “reduced invasion” value ([4]; 40 µg/ml, 15 minutes, triplicate, compared to the controls) was 70% and the “reduced invasion” value ([4]; 40 μg/ml, 60 minutes, separate experiments (n=4 to 7)) was 90%. For the same compound, the “reduced invasion” value ([4]; 40 µg/ml, 60 minutes, triplicate, compared to the controls) was 90%.
In the case of `C[C@@H]1CC[C@]2(C(=O)O)CC[C@]3(C)C(=CCC4[C@@]5(C)C[C@@H](O)[C@@H](O)C(C)(C)C5CC[C@]43C)C2[C@H]1C` (some centres unmarked) [Pygenic acid A, Pygenic Acid A], the “inhibited biofilm formation of P. aeruginosa PAO1” value [1] is reported as “about 40%” and the “inhibitory effect on the growth of P. aeruginosa PA01” value [1] is reported as “no inhibitory effect”.
With `C=C1CCC2(C(=O)O)CCC3(C)C(=CCC4C5(C)CCC(O)C(C)(C)C5CCC43C)C2C1C` (centres unmarked) [Pygenic acid B, Pygenic Acid B] the “inhibited biofilm formation of P. aeruginosa PAO1” value [1] was about 30% and the “inhibitory effect on the growth of P. aeruginosa PA01” value [1] was “no inhibitory effect”.
In the case of `NC[C@H]1O[C@H](O[C@H]2[C@H](O)[C@@H](O[C@H]3O[C@H](CO)[C@@H](O)[C@H](N)[C@H]3O)[C@H](N)C[C@@H]2N)[C@H](N)C[C@@H]1O` [Tobramycin, reference compound], the “CFU, Tobramycin” value ([2]; tobramycin 100 μg/ml 2 h, no test compound, parallel reactor of the experiment) is reported as 5.8 loglo CFU and 6.5 loglo CFU and 6.1 loglo CFU and 6.7 loglo CFU and 6.2 loglo CFU.
In the case of `CO[C@H]1/C=C/O[C@@]2(C)Oc3c(C)c(O)c4c(O)c(c(/C=N/N5CCN(C)CC5)c(O)c4c3C2=O)NC(=O)/C(C)=C\C=C\[C@H](C)[C@H](O)[C@@H](C)[C@@H](O)[C@@H](C)[C@H](OC(C)=O)[C@@H]1C` [rifampin], the “eradication of methicillin-resistant Staphylococcus aureus in a biofilm” value ([5]; biofilm, urinary catheters) is listed as “unable to eradicate” and the “effect against planktonic, or suspended cells” value ([5]; planktonic cells) is listed as “effective”.
With Echinocystic Acid the “inhibited biofilm formation of P. aeruginosa PAO1” value [1] was about 25% and the “inhibitory effect on the growth of P. aeruginosa PA01” value [1] was “no inhibitory effect”.
